In brackets after ≈: the same amount, converted by molar mass. Read-outs that look alike come from different tables or passages of the source.
Assays:
[1] = system: HEK-293 ATCC CRL-1573 human embryonic kidney cells; assay type: cell-based
Description: As part of the CO‐ADD screening, all compounds that show any activity against a microbial strain are evaluated for their cytotoxicity against human embryonic kidney cells (HEK‐293) and for haemolysis against human red blood cells. None of the compounds tested for cytotoxicity (Pt1‐9 and Pd1) caused any significant cell death up to concentrations of 100 μM. […] We have also observed higher IC50 values for the methylated complexes Pt3 and Pt4 against HeLa cells in previous work.[16] […]
inhibitors as positive control.
Tamoxifen (Sigma T5648) was used
as internal control on each plate.
in a Neubauer haemocytometer. […]

[2] = system: Staphylococcus aureus VRS 1, VRSA (VanA); assay: Antibacterial MIC assay, Gram-positive panel; assay type: cell-based; conditions: Staphylococcus aureus, VRSA
Text: (§1) Bis(dimethyl-η4)-((1Z,1'E,5Z,5'E)-(1,1'-bi(cyclooctadiene))diplatinum(II) (Pt14) Smiles: C1C=CCCC(=CC1)C1=CCCC=CCC1.C[Pt]C.C[Pt]C
(§2) InChIKey: PHIWIZAHOBWKFJ-HPCBIOCFSA-N
(§3) Link to selected data that was repeated to approve the identity of the compounds: https://dx.doi.org/10.14272/PHIWIZAHOBWKFJ-HPCBIOCFSA-N.1
(§4) ATCC strains were sourced from the American Type Culture Collection and NRS strains from NARSA (Network on Antimicrobial Resistance in Staphylococcus aureus) via BEI Resources (www.beiresources.org), with clinical MSSA and MRSA isolates from Prof Graeme Nimmo, Queensland […]
(§5) Health Central Pathology. […]
(§6) Antibacterial minimum inhibitory concentration (MIC) assay
(§7) Compound Assay Plate Preparation: Compounds were dissolved in DMSO at 10mM (CO-ADD screening) or 4 mM (follow up screening) and were plated in a 2-fold dose response from 20 to 0.156 µM or 200 to 0.006 µM respectively, with a maximum of 0.5% or 1% DMSO, final in the assay […]
(§8) plated in a 2-fold dose response from 200 to 0.006 µM, with a maximum of 1 % DMSO, final in the assay concentration. (in-house screening)
(§9) For all the bacterial assays, each strain was cultured in Cation-adjusted Mueller Hinton broth (CAMHB; Bacto Laboratories 212322) at 37 °C overnight. A sample of each culture was then diluted 40-fold in fresh CAMHB and incubated at 37 °C for 1.5–3 h. The resultant mid-log phase cultures were diluted with CAMHB (CFU mL−1 measured by OD600), then added to each well of the compound-containing plates (384-well non-binding surface (NBS) plates; Corning CLS3640), giving a cell density of 5 × 10^5 CFU mL−1 and a total volume of 50 μL. Plates were covered and incubated at 37 °C for 18 h without shaking. Inhibition of bacterial growth was determined measuring absorbance at 600 nm (OD600), using media only as negative control and bacteria without inhibitors as positive control. MIC values were determined as the lowest concentration at which the growth was inhibited at ≥80%. Colistin sulfate (Sigma C4461) and vancomycin HCl (Sigma 861987) were used as internal controls on each plate for Gram-negative and Gram-positive bacteria, respectively. […]

[3] = system: Staphylococcus aureus ATCC 25923, MSSA; assay: Antibacterial MIC assay, Gram-positive panel; assay type: cell-based; conditions: Staphylococcus aureus
Text: as §1, §2, §3, §4, §5, §6, §7, §8, §9

[4] = system: B. subtilis ATCC 6051 type strain; assay: MIC in the presence of human serum (serum reversal); assay type: cell-based, Bacillus subtilis; conditions: Bacillus subtilis, ATCC6051, read-out: MIC in the presence of human serum
Text: (§10) To obtain some initial insight into the apparent disparity between in vitro and in vivo results, we repeated the MIC experiments against four selected Gram‐positive strains in the presence of 10 % or 50 % human serum (Table S3). Pt1 and Pt2 maintained some antibacterial activity against B. subtilis in the presence of 10 % serum, but a complete loss of activity was observed against MRSA and GISA (50 % serum), and VRE (10 % serum). […] Systemic administration is therefore unlikely to be a suitable administration route for this class of compounds unless an alternative formulation that can prevent serum binding (e. g. by lipid or nanoparticle encapsulation) can be found. […] Further in vivo studies should therefore focus on more suitable disease models. […]
as §6
(§11) concentration. (in-house screening)
(§12) Bacto Laboratories 212322) at 37 °C overnight.
(§13) The resultant mid-log phase cultures were diluted
(§14) Gram-negative and Gram-positive bacteria, respectively.
(§15) final concentration range of 0.8 – 100 µM.
(§16) inhibitors as positive control. […]

[5] = system: S. aureus ATCC 43300 MRSA; assay: as above; assay type: cell-based, Staphylococcus aureus; conditions: Staphylococcus aureus, read-out: MIC in the presence of human serum
Text: as §10, §6, §11, §12, §13, §14, §15, §16

S. aureus NRS 17 GISA = assay: as above; assay type: cell-based, Staphylococcus aureus; conditions: Staphylococcus aureus, NRS17, read-out: MIC in the presence of human serum
Text: as §10, §6, §11, §12, §13, §14, §15, §16

[6] = system: Staphylococcus epidermidis NRS 60, VISE; assay: Antibacterial MIC assay, Gram-positive panel; assay type: cell-based; conditions: Staphylococcus epidermidis
Description: (§17) Smiles: C1C=CCCC(=CC1)C1=CCCC=CCC1.C[Pt]C.C[Pt]C […]
as §4, §5, §6, §7, §8, §9

[7] = system: Staphylococcus epidermidis ATCC 14990, type strain; assay: Antibacterial MIC assay, Gram-positive panel; assay type: cell-based; conditions: Staphylococcus epidermidis
Description: as §17, §4, §5, §6, §7, §8, §9

[8] = system: Enterococcus faecalis ATCC 29212, control strain; assay: Antibacterial MIC assay, Gram-positive panel; assay type: cell-based; conditions: Enterococcus faecalis
Description: as §17, §4, §5, §6, §7, §8, §9

[9] = system: Enterococcus faecium Clinical Isolate, VRE (VanA); assay: Antibacterial MIC assay, Gram-positive panel; assay type: cell-based; conditions: Enterococcus faecium, VRE
Description: as §17, §4, §5, §6, §7, §8, §9

[10] = system: Staphylococcus aureus NRS 17, GISA; assay: Antibacterial MIC assay, Gram-positive panel; assay type: cell-based; conditions: Staphylococcus aureus
Description: as §17, §4, §5, §6, §7, §8, §9

[11] = system: Enterococcus faecalis Clinical Isolate, VRE (VanB); assay: Antibacterial MIC assay, Gram-positive panel; assay type: cell-based; conditions: Enterococcus faecalis, VRE
Description: as §17, §4, §5, §6, §7, §8, §9

[12] = system: Enterococcus faecium ATCC 35667, type strain; assay: Antibacterial MIC assay, Gram-positive panel; assay type: cell-based; conditions: Enterococcus faecium
Description: as §17, §4, §5, §6, §7, §8, §9

[13] = system: Bacillus subtilis ATCC 6051, type strain; assay: Antibacterial MIC assay, Gram-positive panel; assay type: cell-based; conditions: Bacillus subtilis
Description: as §17, §4, §5, §6, §7, §8, §9

[14] = system: Enterococcus faecium ATCC 51559, MDR, VRE (VanA); assay: Antibacterial MIC assay, Gram-positive panel; assay type: cell-based; conditions: Enterococcus faecium
Description: as §17, §4, §5, §6, §7, §8, §9

[15] = system: E. faecium ATCC 51559 MDR, VRE; assay: MIC in the presence of human serum (serum reversal); assay type: cell-based, Enterococcus faecium; conditions: Enterococcus faecium, read-out: MIC in the presence of human serum
Text: as §10, §6, §11, §12, §13, §14, §15, §16

[16] = system: Staphylococcus aureus ATCC 43300 (MRSA); assay: microbe, parasite or virus in culture; assay type: cell-based; conditions: Staphylococcus aureus
Description: All compounds submitted to CO‐ADD are initially screened against five bacterial strains (Staphylococcus aureus (MRSA), E. coli, Klebsiella pneumoniae, Pseudomonas aeruginosa, Acinetobacter baumannii) and two fungal strains (Candida albicans, Cryptococcus neoformans) at a single concentration (32 μg/mL or 20 μM) performed as a high‐throughput primary screening.[[11], [17a]] Any compounds that show significant growth inhibition against any of the tested strains at this step are then evaluated in a dose‐response assay against these same strains. […]
as §17, §4, §5, §6, §7, §8, §9

Question: With CC/C(=C(\c1ccccc1)c1ccc(OCCN(C)C)cc1)c1ccccc1 [Tamoxifen, reference compound] as the molecule, how does the “HEK‐293 CC50” value [1] read?
Answer: Its value is 34.75–30.55.

Question: For CN[C@H](CC(C)C)C(=O)N[C@H]1C(=O)N[C@@H](CC(N)=O)C(=O)N[C@H]2C(=O)N[C@H]3C(=O)N[C@H](C(=O)N[C@H](C(=O)O)c4cc(O)cc(O)c4-c4cc3ccc4O)[C@H](O)c3ccc(c(Cl)c3)Oc3cc2cc(c3O[C@@H]2O[C@H](CO)[C@@H](O)[C@H](O)[C@H]2O[C@H]2C[C@](C)(N)[C@H](O)[C@H](C)O2)Oc2ccc(cc2Cl)[C@H]1O [Vancomycin, reference compound], which MIC ([2]; Table 2 panel, n=4) is on record?
Answer: The MIC was > 44.2 µg/mL.

Question: What about the MIC ([2]; Table S1, vancomycin control) of the same molecule?
Answer: The MIC was > 64 µg/mL.

Question: What about the MIC ([3]; Table 2 panel, n=4) of the same molecule?
Answer: The MIC was 0.69 µg/mL (≈ 0.476 µM).

Question: And the MIC ([3]; Table S1, vancomycin control)?
Answer: The MIC was 1 µg/mL (≈ 0.69 µM).

Question: What about the MIC [4] of the same molecule?
Answer: The MIC was 0.5 µg/mL.

Question: And the MIC [5]?
Answer: The MIC was 0.5 to 1 µg/mL.

Question: And the MIC (S. aureus NRS 17 GISA)?
Answer: The MIC was 8 µg/mL.

Question: What about the MIC ([6]; NRS60, Table 2 panel, n=4) of the same molecule?
Answer: The MIC was 2.76 µg/mL (≈ 1.9 µM).

Question: And the MIC ([6]; NRS60, Table S1, vancomycin control)?
Answer: Its MIC is 4 µg/mL (≈ 2.76 µM).

Question: And the MIC ([7]; ATCC14990, Table 2 panel, n=4)?
Answer: Its MIC is 0.69 to 1.38 µg/mL (≈ 0.476 to 0.952 µM).

Question: And the MIC ([7]; ATCC14990, Table S1, vancomycin control)?
Answer: Its MIC is 1 to 2 µg/mL (≈ 0.69 to 1.38 µM).

Question: What about the MIC ([8]; ATCC29212, Table 2 panel, n=4) of the same molecule?
Answer: Its MIC is 1.38 to 2.76 µg/mL (≈ 0.952 to 1.9 µM).

Question: What about the MIC ([8]; ATCC29212, Table S1, vancomycin control) of the same molecule?
Answer: Its MIC is 2 to 4 µg/mL (≈ 1.38 to 2.76 µM).

Question: And the MIC ([9]; Table 2 panel, n=4)?
Answer: The MIC was > 44.2 µg/mL.

Question: And the MIC ([9]; Table S1, vancomycin control)?
Answer: The MIC was > 64 µg/mL.

Question: And the MIC ([10]; NRS17, Table 2 panel, n=2)?
Answer: The MIC was 5.52 µg/mL (≈ 3.81 µM).

Question: What about the MIC ([10]; NRS17, Table S1, vancomycin control) of the same molecule?
Answer: Its MIC is 8 µg/mL (≈ 5.52 µM).

Question: What about the MIC ([11]; Table 2 panel, n=4) of the same molecule?
Answer: Its MIC is > 44.2 µg/mL.

Question: And the MIC ([11]; Table S1, vancomycin control)?
Answer: The MIC was 64 µg/mL (≈ 44.2 µM).

Question: And the MIC ([12]; ATCC35667, Table 2 panel, n=4)?
Answer: The MIC was 0.35 µg/mL (≈ 0.242 µM).

Question: And the MIC ([12]; ATCC35667, Table S1, vancomycin control)?
Answer: The MIC was 0.5 µg/mL (≈ 0.345 µM).

Question: What about the MIC ([13]; ATCC6051, Table 2 panel, n=2) of the same molecule?
Answer: Its MIC is 0.35 µg/mL (≈ 0.242 µM).

Question: And the MIC ([13]; ATCC6051, Table S1, vancomycin control)?
Answer: The MIC was 0.5 µg/mL (≈ 0.345 µM).

Question: What about the MIC ([14]; Table 2 panel, n=2) of the same molecule?
Answer: The MIC was > 44.2 µg/mL.

Question: What about the MIC ([14]; Table S1, vancomycin control) of the same molecule?
Answer: Its MIC is > 64 µg/mL.

Question: And the MIC [15]?
Answer: Its MIC is > 64 µg/mL.

Question: And the MIC ([16]; Table 2 panel, n=2)?
Answer: The MIC was 0.35 to 0.69 µg/mL (≈ 0.242 to 0.476 µM).

Question: What about the MIC ([16]; Table S1, vancomycin control) of the same molecule?
Answer: The MIC was 0.5 to 1 µg/mL (≈ 0.345 to 0.69 µM).

Question: And the MIC ([16]; read-out: MIC Sa, CO‐ADD screening, control antibiotic)?
Answer: Its MIC is 1 µg/mL (≈ 0.69 µM).
